Measured values reported in patent US9409905B2, “Antibacterial compounds and methods for use” (PTC THERAPEUTICS, INC., priority 2011, dated 2016).
In brackets after ≈: the same amount, converted by molar mass. Where two headings read alike, the source gives them in different places.

Legend:
[1] = tested on: Pseudomonas aeruginosa (P. aeruginosa) 27853; test: Antibacterial activity, MIC (Table 5); format: cell-based
Summary of the method: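 Compounds are serially diluted in broth and inoculated with the organism. Growth is then inspected macroscopically, and the lowest concentration showing none is taken as the MIC (μg/mL).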

[2] = tested on: Staphylococcus aureus (S. aureus) 29213; test: Antibacterial activity, microbroth dilution MIC (Table 1); format: cell-based
Summary of the method: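 MIC (μg/mL) is taken as the lowest concentration with no macroscopically visible growth. Strains tested by microbroth dilution: Gram-positive S. aureus 29213, control Gram-negative E. coli 25922, and super-sensitive E. coli BAS849.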

[3] = tested on: Escherichia coli (E. coli) BAS849; test: as above; format: cell-based
Summary of the method: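 Potency is reported as minimum inhibitory concentration in μg/mL, determined by broth microdilution as the lowest level of compound that stops growth visible to the eye.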

E. coli 25922 = test: as above; format: cell-based, Escherichia coli
Summary of the method: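 Microbroth dilution was used. MIC, in μg/mL, is the lowest drug concentration preventing macroscopically visible growth under the test conditions.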

A. baumannii MXX2240 = test: Antibacterial activity, MIC, resistant strain (Table 4); format: cell-based; settings: Acinetobacter baumannii
Summary of the method: (§1)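 Broth microdilution; MIC (μg/mL) = lowest concentration with no macroscopically visible growth. Resistant strains: multi-drug resistant clinical isolates.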

K. pneumoniae MXX1232 = test: as above; format: cell-based; settings: Klebsiella pneumoniae
Summary of the method: as §1

E. coli LZ3111 = test: Antibacterial activity, MIC, quinolone resistant strain (Table 2); format: cell-based; settings: Escherichia coli, LZ3111, read-out: MIC LZ3111
Summary of the method: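 Strain carries mutations conferring high-level quinolone resistance; tested by microbroth dilution, MIC recorded in μg/mL as lowest concentration preventing visible growth.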

[4] = tested on: Klebsiella pneumoniae (K. pneumoniae) 35657; test: Antibacterial activity, MIC (Table 4); format: cell-based
Summary of the method: as §1

[5] = tested on: Acinetobacter baumannii (A. baumannii) BAA747; test: Antibacterial activity, MIC (Table 4); format: cell-based
Summary of the method: as §1

[6] = P. aeruginosa 27853, read-out: MIC, 27853
[7] = microbroth dilution, Gram-positive S. aureus 29213, read-out: MIC, 29213
[8] = microbroth dilution, super sensitive Gram-negative E. coli BAS849, read-out: MIC, BAS849
[9] = Escherichia coli, microbroth dilution, control Gram-negative E. coli 25922 strain, read-out: MIC, 25922
[10] = MXX2240, resistant A. baumannii MMX2240, multi-drug resistant clinical isolate, read-out: MIC, MMX2240
[11] = MXX1232, resistant K. pneumoniae MMX1232, multi-drug resistant clinical isolate, read-out: MIC, MMX1232
[12] = K. pneumoniae 35657, read-out: MIC, 35657
[13] = A. baumannii BAA747, read-out: MIC, BAA747
[14] = Escherichia coli, 25922, read-out: MIC, 25922
[15] = MXX2240, read-out: MIC, MMX2240
[16] = MXX1232, read-out: MIC, MMX1232

SMILES | MIC [1, 6] [µg/mL] | MIC [2, 7] [µg/mL] | MIC [3, 8] [µg/mL] | MIC (E. coli 25922; [9]) [µg/mL] | MIC (A. baumannii MXX2240; [10]) [µg/mL] | MIC (K. pneumoniae MXX1232; [11]) [µg/mL] | MIC (E. coli LZ3111) [µg/mL] | MIC [4, 12] [µg/mL] | MIC [5, 13] [µg/mL] | MIC ([1]; read-out: MIC, 27853) [µg/mL] | MIC ([2]; read-out: MIC, 29213) [µg/mL] | MIC ([3]; read-out: MIC, BAS849) [µg/mL] | MIC (E. coli 25922; [14]) [µg/mL] | MIC (A. baumannii MXX2240; [15]) [µg/mL] | MIC (K. pneumoniae MXX1232; [16]) [µg/mL] | MIC ([4]; read-out: MIC, 35657) [µg/mL] | MIC ([5]; BAA747, read-out: MIC, BAA747) [µg/mL]
CCc1c(-c2ccc3c(ccn3-c3ccc(N4CCCC4)cc3)c2)[nH]c(=O)c(C(=O)O)c1O [Cpd 440, 5-ethyl-4-hydroxy-2-oxo-6-(1-(4-(pyrrolidin-1-yl)phenyl)-1H-indol-5-yl)-1,2-dihydropyridine-3-carboxylic acid] | 12.5 to 150 (≈ 28.2 to 338 µM) | 12.5 to 150 (≈ 28.2 to 338 µM) | 12.5 to 150 (≈ 28.2 to 338 µM) | 12.5 to 150 (≈ 28.2 to 338 µM) | 12.5 to 150 (≈ 28.2 to 338 µM) | 12.5 to 150 (≈ 28.2 to 338 µM) | 12.5 to 150 (≈ 28.2 to 338 µM) | 12.5 to 150 (≈ 28.2 to 338 µM) | 12.5 to 150 (≈ 28.2 to 338 µM) |  |  |  |  |  |  |  | 
CCc1c(-c2ccc3cc(CN(C)C)[nH]c3c2)[nH]c(=O)c(C(=O)O)c1O.Cl [Cpd 441, 6-(2-((dimethylamino)methyl)-1H-indol-6-yl)-5-ethyl-4-hydroxy-2-oxo-1,2-dihydropyridine-3-carboxylic acid hydrochloride] | 12.5 to 150 | 1 to 3.5 | < 1 | < 1 | 3.5 to 12.5 | 12.5 to 150 | 12.5 to 150 | < 1 | 1 to 3.5 |  |  |  |  |  |  |  | 
CCNCc1cc2ccc(-c3[nH]c(=O)c(C(=O)O)c(O)c3CC)cc2[nH]1.Cl [Cpd 442, 5-ethyl-6-(2-((ethylamino)methyl)-1H-indol-6-yl)-4-hydroxy-2-oxo-1,2-dihydropyridine-3-carboxylic acid hydrochloride] | 12.5 to 150 | 12.5 to 150 | 1 to 3.5 | 3.5 to 12.5 | 12.5 to 150 | 12.5 to 150 | 12.5 to 150 | 3.5 to 12.5 | 12.5 to 150 |  |  |  |  |  |  |  | 
CCc1c(-c2ccc3cc(CNC(C)CC)[nH]c3c2)[nH]c(=O)c(C(=O)O)c1O.Cl (stereo not drawn) [Cpd 443, 6-(2-((sec-butylamino)methyl)-1H-indol-6-yl)-5-ethyl-4-hydroxy-2-oxo-1,2-dihydropyridine-3-carboxylic acid hydrochloride] | 12.5 to 150 | 3.5 to 12.5 | 1 to 3.5 | 3.5 to 12.5 | 3.5 to 12.5 | 12.5 to 150 | 3.5 to 12.5 | 3.5 to 12.5 | 12.5 to 150 |  |  |  |  |  |  |  | 
CCNCc1cc2ccc(-c3[nH]c(=O)c(C(=O)O)c(O)c3C)cc2[nH]1.Cl [Cpd 444, 6-(2-((ethylamino)methyl)-1H-indol-6-yl)-4-hydroxy-5-methyl-2-oxo-1,2-dihydropyridine-3-carboxylic acid hydrochloride] | 12.5 to 150 | 12.5 to 150 | 12.5 to 150 | 12.5 to 150 | 12.5 to 150 | 12.5 to 150 | 12.5 to 150 | 12.5 to 150 | 12.5 to 150 |  |  |  |  |  |  |  | 
CCc1c(-c2ccc3c4c([nH]c3c2)CNCC4)[nH]c(=O)c(C(=O)O)c1O [Cpd 445, 5-ethyl-4-hydroxy-2-oxo-6-(2,3,4,9-tetrahydro-1H-pyrido[3,4-b]indol-7-yl)-1,2-dihydropyridine-3-carboxylic acid] | 12.5 to 150 (≈ 35.4 to 424 µM) | 12.5 to 150 (≈ 35.4 to 424 µM) | 3.5 to 12.5 (≈ 9.9 to 35.4 µM) | 12.5 to 150 (≈ 35.4 to 424 µM) | 12.5 to 150 (≈ 35.4 to 424 µM) | 12.5 to 150 (≈ 35.4 to 424 µM) | 12.5 to 150 (≈ 35.4 to 424 µM) | 3.5 to 12.5 (≈ 9.9 to 35.4 µM) | 12.5 to 150 (≈ 35.4 to 424 µM) |  |  |  |  |  |  |  | 
CCc1c(-c2ccc3c4c([nH]c3c2)CN(C)CC4)[nH]c(=O)c(C(=O)O)c1O [Cpd 446, 5-ethyl-4-(hydroxy)-6-(2-methyl-2,3,4,9-tetrahydro-1H-pyrido[3,4-b]indol-7-yl)-2-oxo-1,2-dihydropyridine-3-carboxylic acid] |  |  |  |  |  |  | 1 to 3.5 (≈ 2.72 to 9.53 µM) |  |  | 3.5 to 12.5 (≈ 9.53 to 34 µM) | 12.5 to 150 (≈ 34 to 408 µM) | < 1 | 1 to 3.5 (≈ 2.72 to 9.53 µM) | 12.5 to 150 (≈ 34 to 408 µM) | 12.5 to 150 (≈ 34 to 408 µM) | < 1 | 3.5 to 12.5 (≈ 9.53 to 34 µM)
CCc1c(-c2ccc3c4c([nH]c3c2)CN(CC)CC4)[nH]c(=O)c(C(=O)O)c1O [Cpd 447, 5-ethyl-6-(2-ethyl-2,3,4,9-tetrahydro-1H-pyrido[3,4-b]indol-7-yl)-4-hydroxy-2-oxo-1,2-dihydropyridine-3-carboxylic acid] |  |  |  |  |  |  | 3.5 to 12.5 (≈ 9.18 to 32.8 µM) |  |  | 12.5 to 150 (≈ 32.8 to 393 µM) | 12.5 to 150 (≈ 32.8 to 393 µM) | < 1 | < 1 | 12.5 to 150 (≈ 32.8 to 393 µM) | 12.5 to 150 (≈ 32.8 to 393 µM) | < 1 | 3.5 to 12.5 (≈ 9.18 to 32.8 µM)
CCCN1CCc2c([nH]c3cc(-c4[nH]c(=O)c(C(=O)O)c(O)c4CC)ccc23)C1 [Cpd 448, 5-ethyl-4-hydroxy-2-oxo-6-(2-propyl-2,3,4,9-tetrahydro-1H-pyrido[3,4-b]indol-7-yl)-1,2-dihydropyridine-3-carboxylic acid] |  |  |  |  |  |  | 3.5 to 12.5 (≈ 8.85 to 31.6 µM) |  |  | 12.5 to 150 (≈ 31.6 to 379 µM) | 12.5 to 150 (≈ 31.6 to 379 µM) | < 1 | < 1 | 3.5 to 12.5 (≈ 8.85 to 31.6 µM) | 12.5 to 150 (≈ 31.6 to 379 µM) | 1 to 3.5 (≈ 2.53 to 8.85 µM) | 3.5 to 12.5 (≈ 8.85 to 31.6 µM)
CCc1c(-c2ccc3c4c([nH]c3c2)CN(C(C)C)CC4)[nH]c(=O)c(C(=O)O)c1O [Cpd 449, 5-ethyl-4-hydroxy-6-(2-isopropyl-2,3,4,9-tetrahydro-1H-pyrido[3,4-b]indol-7-yl)-2-oxo-1,2-dihydropyridine-3-carboxylic acid] | 12.5 to 150 (≈ 31.6 to 379 µM) | 12.5 to 150 (≈ 31.6 to 379 µM) | < 1 | < 1 | 3.5 to 12.5 (≈ 8.85 to 31.6 µM) | 12.5 to 150 (≈ 31.6 to 379 µM) | 3.5 to 12.5 (≈ 8.85 to 31.6 µM) | < 1 | 3.5 to 12.5 (≈ 8.85 to 31.6 µM) |  |  |  |  |  |  |  | 
CCc1c(-c2ccc3c4c([nH]c3c2)CCNC4)[nH]c(=O)c(C(=O)O)c1O [Cpd 450, 5-ethyl-4-hydroxy-2-oxo-6-(2,3,4,5-tetrahydro-1H-pyrido[4,3-b]indol-7-yl)-1,2-dihydropyridine-3-carboxylic acid] | 12.5 to 150 (≈ 35.4 to 424 µM) | 12.5 to 150 (≈ 35.4 to 424 µM) | 3.5 to 12.5 (≈ 9.9 to 35.4 µM) | 12.5 to 150 (≈ 35.4 to 424 µM) | 12.5 to 150 (≈ 35.4 to 424 µM) | 12.5 to 150 (≈ 35.4 to 424 µM) | 12.5 to 150 (≈ 35.4 to 424 µM) | 3.5 to 12.5 (≈ 9.9 to 35.4 µM) | 12.5 to 150 (≈ 35.4 to 424 µM) |  |  |  |  |  |  |  | 
CCc1c(-c2ccc3c4c([nH]c3c2)CCN(C)C4)[nH]c(=O)c(C(=O)O)c1O [Cpd 451, 5-ethyl-4-hydroxy-6-(2-methyl-2,3,4,5-tetrahydro-1H-pyrido[4,3-b]indol-7-yl)-2-oxo-1,2-dihydropyridine-3-carboxylic acid] | 12.5 to 150 (≈ 34 to 408 µM) | 12.5 to 150 (≈ 34 to 408 µM) | < 1 | < 1 | 12.5 to 150 (≈ 34 to 408 µM) | 12.5 to 150 (≈ 34 to 408 µM) | 3.5 to 12.5 (≈ 9.53 to 34 µM) | < 1 | 3.5 to 12.5 (≈ 9.53 to 34 µM) |  |  |  |  |  |  |  | 
CCc1c(-c2ccc3c4c([nH]c3c2)CCN(CC)C4)[nH]c(=O)c(C(=O)O)c1O [Cpd 452, 5-ethyl-6-(2-ethyl-2,3,4,5-tetrahydro-1H-pyrido[4,3-b]indol-7-yl)-4-hydroxy-2-oxo-1,2-dihydropyridine-3-carboxylic acid] | 12.5 to 150 (≈ 32.8 to 393 µM) | 12.5 to 150 (≈ 32.8 to 393 µM) | < 1 | < 1 | 12.5 to 150 (≈ 32.8 to 393 µM) | 12.5 to 150 (≈ 32.8 to 393 µM) | 12.5 to 150 (≈ 32.8 to 393 µM) | 1 to 3.5 (≈ 2.62 to 9.18 µM) | 12.5 to 150 (≈ 32.8 to 393 µM) |  |  |  |  |  |  |  | 
